Reference: US20250332293A1, “METHOD FOR MANUFACTURING BIOCOMPATIBLE NANOPARTICLES WITH A PEPTIDE CORE EXHIBITING SECOND- AND THIRD-HARMONIC SIGNAL GENERATION” (MAX-PLANCK-GESELLSCHAFT ZUR FÖRDERUNG DER WISSENSCHAFTEN E. …, priority 2016, published 2025)
Residues, ends and D or L forms follow the SMILES beside them.

Columns and labels:
proteinase K = proteinase K (Parengyodontium album, UniProt P06873); test: Digestion of self-assembled structures by proteinase K, SHG image time series; assay type: in vitro ADME; settings: no polymer shell, aqueous solution with proteinase K, 0 to 60 minutes
Chain of proteinase K (P06873 106-384): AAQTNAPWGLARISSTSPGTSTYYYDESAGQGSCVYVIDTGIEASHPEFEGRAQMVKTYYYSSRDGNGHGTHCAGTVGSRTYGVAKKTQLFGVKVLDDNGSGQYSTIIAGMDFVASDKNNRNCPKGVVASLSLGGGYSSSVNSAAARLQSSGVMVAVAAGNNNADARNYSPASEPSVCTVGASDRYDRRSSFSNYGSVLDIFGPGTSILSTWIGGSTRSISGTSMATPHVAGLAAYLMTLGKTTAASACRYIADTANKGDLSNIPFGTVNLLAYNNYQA
Protocol: The digestion 201 is facilitated by a proteinase K.
The proteinase K digests the self-assembled structure into single phenylalanines.
In FIG. 6 the corresponding SHG images of a digestion 201 of self-assembled structures of triphenylalanines 41 suspended in aqueous solution with proteinase K is shown. Here, image A) has been taken at time 0 minutes, image B) at 20 minutes, C) at 40 minutes and image D) after 60 minutes after adding proteinase K to the solution.

[1] = Stability of SHG signal with regard to pH of the solvent; assay type: physicochemical
Protocol: The disassembly occurs within minutes (˜5 minutes) after incubation in pH 4.
Panel A: SHG signal after incubation of the nanoparticles for 72 hours in a buffer at pH 7. Same as in panel A, but at pH 6. Same as in panel A, but at pH 5. Panel D: same as in panel A, but at pH 4.
In FIG. 16a, the effect of different pH values on the SHG signal intensity are shown as a diagram. The nanoparticles were incubated at different pH values for 72 hours (n=5). Representative images showing SHG signal intensity after the nanoparticles were incubated in buffers at FIG. 16b, pH 7, FIG. 16c, pH 6, FIG. 16d, pH 5, and FIG. 16e, pH 4. Scalebar, 10 μm. Mean±s.d. n.s., not significant (Ordinary one-way ANOVA with Tukey's multiple comparisons).

[2] = Stability of SHG signal with regard to dilution; assay type: physicochemical; settings: 10 mg/ml (versus 100 mg/ml)
Protocol: Panel A: LIVAGK peptides' SHG signal at a concentration of 100 mg/ml. Panel B: LIVAGK peptides' SHG signal at a concentration of 10 mg/ml.

Compound | SHG signal during proteinase K digestion (proteinase K) | assembly state / SHG signal at pH 4 ([1]; pH 4, 100 mg/ml) | time to disassembly after incubation in pH 4 ([1]; pH 4, 100 mg/ml) [minutes] | assembly state / SHG signal at pH 7 ([1]; pH 7, 100 mg/ml) | SHG signal on dilution [2]
N[C@@H](Cc1ccccc1)C(=O)N[C@@H](Cc1ccccc1)C(=O)N[C@@H](Cc1ccccc1)C(=O)O [triphenylalanine, Phe-Phe-Phe] (H-Phe-Phe-Phe-OH; N-terminus and C-terminus assumed) | decreasing over the course of time | – | – | – | –
LIVAGK | – | disassemble | ~5 | still assembled | no SHG signal can be observed
